Measurements: patent US20230193562A1, “METHOD FOR CONTROLLING VOLATILE FATTY ACID CONTENT IN PULP, PAPER, AND/OR BOARD MAKING PROCESSES” (SOLENIS TECHNOLOGIES, L.P., priority 2021, published 2023)
Read-outs that look alike come from different tables or passages of the source.

Test system: Microbial strains (5) isolated from paper mill water samples
Assay: VFA reduction in TGE broth cultures of paper mill microbial isolates, VFA measured by GC-FID
Assay type: cell-based
Experimental: Equipment: A Gas Chromatograph (GC) equipped with a flame ionization detector (FID) (e.g. Agilent 6890N GC or equivalent) equipped with an autosampler is utilized with a Fused Silica Capillary Column (e.g. Agilent DB-WAX UI, 30 m×0.53 mm×1.0 μm).
Sample Preparation: An aliquot (0.5 mL) of a sample is taken from a shaken sample well via pipet and transferred into a glass vial with the standard diluent (4.5 mL). The glass vial is then capped and vortexed, and a portion of the contents transferred into a GC vial.
GC Standardization: The GC is standardized by injecting 2.0 μL of each working standard using the instrument parameters listed in Table 2 below. The areas for the standards are used to create a linear calibration curve in GC software (e.g. Agilent Chemstation or equivalent).
Quantitative Sample Analysis: Samples (2 μL injection volume) are analyzed against the working standards, with appropriate dilutions made to keep sample concentrations within the range of the standards. Peak areas of the samples are compared to the standard curves to determine the amounts of each VFA present in each sample via GC software (e.g. Agilent Chemstation or equivalent).
Calibration: A working standard (10 or 50 ppm, 2 μL) is injected at the beginning and end of each set of samples, and intermittently within long sequences of sampling, and the concentration determined and compared to the to the standard curve to maintain calibration (+/−5% of standard curve).
General Procedure: Microbial strains (5) are isolated from paper mill water samples onto individual petri plates. Overnight cultures are prepared by inoculating TGE Broth (10 mL) with a single colony from each petri plate (5 isolated strains=5 colonies per 10 mL overnight culture). Each culture is then incubated overnight at 35° C. with shaking. Portions (0.6 mL ea.) of each overnight culture are added to bottles with sterile TGE broth (29.4 mL) and the resulting mixtures are incubated with shaking at 35° C. After 2 hours (T=0), an initial sample from each bottles is taken and analyzed GC as described above. The samples are then dosed with a VFA Control Agent, capped, and incubated with shaking at 35° C. Aliquots of each sample are taken at various times post-dosage and analyzed via GC as described above, with each sample bottle capped and incubated between samplings along with an uninoculated control (sterile TGE broth) and an inoculated control (untreated). % VFA reduction is reported based on the relative VFA concentration (ppm) of a sample determined against the inoculated/untreated control.

[1] = single VFA Control Agent, ppm as per Example (25-500 ppm), 4 h post-dosage, 35° C., vs inoculated/untreated control
[2] = single VFA Control Agent at 50 or 100 ppm as per Example, 0.5 h post-dosage
[3] = single VFA Control Agent at 50 or 100 ppm as per Example, 2 h post-dosage
[4] = single VFA Control Agent at 50 or 100 ppm as per Example, 2.5 h post-dosage

O=P(O)(O)CN(CCCCCCN(CP(=O)(O)O)CP(=O)(O)O)CCCCCCN(CP(=O)(O)O)CP(=O)(O)O [Example 5]
VFA Red. at 4 h (%) [1]: 4%

O=S([O-])O.[Na+] [Example 29, Sodium bisulfite]
VFA Red. at 0.5 h (%) [2]: 1.0% | VFA Red. at 2 h (%) [3]: 14.6% | VFA Red. at 2.5 h (%) [4]: 25.5%

O=P(O)(O)CN(CCN(CP(=O)(O)O)CP(=O)(O)O)CCN(CP(=O)(O)O)CP(=O)(O)O [Example 7, Diethylenetriamine penta(methylene phosphonic acid)]
VFA Red. at 4 h (%): 19%

Polyamino polyether methylene phosphonic acid [Example 10]
VFA Red. at 4 h (%) [1]: 10%

O=S([O-])O.[Na+] [Example 28, Sodium bisulfite]
VFA Red. at 0.5 h (%) [2]: 3.1% | VFA Red. at 2 h (%) [3]: 0.0% | VFA Red. at 2.5 h (%) [4]: 6.9%

Polyamino polyether methylene phosphonic acid [Example 9]
VFA Red. at 4 h (%) [1]: 5%

Diethylenetriamine penta(methylene phosphonic acid) sodium salt [Example 27]
VFA Red. at 0.5 h (%) (sodium salt): 4.2% | VFA Red. at 2 h (%) (sodium salt): 7.9% | VFA Red. at 2.5 h (%) (sodium salt): 6.9%

O=P(O)(O)CN(CCN(CP(=O)(O)O)CP(=O)(O)O)CCN(CP(=O)(O)O)CP(=O)(O)O [Example 24, Diethylenetriamine penta(methylene phosphonic acid)]
VFA Red. at 0.5 h (%): 2.1% | VFA Red. at 2 h (%): 6.4% | VFA Red. at 2.5 h (%): 8.2%

Diethylenetriamine penta(methylene phosphonic acid) sodium salt [Example 26]
VFA Red. at 0.5 h (%) (sodium salt): 3.1% | VFA Red. at 2 h (%) (sodium salt): 6.4% | VFA Red. at 2.5 h (%) (sodium salt): 9.1%

O=P1([O-])OP(=O)([O-])OP(=O)([O-])OP(=O)([O-])OP(=O)([O-])OP(=O)([O-])O1.[Na+].[Na+].[Na+].[Na+].[Na+].[Na+] [Example 4, Sodium hexametaphosphate]
VFA Red. at 4 h (%) [1]: 4%

O=P(O)(O)CN(CCN(CP(=O)(O)O)CP(=O)(O)O)CCN(CP(=O)(O)O)CP(=O)(O)O [Example 8, Diethylenetriamine penta(methylene phosphonic acid)]
VFA Red. at 4 h (%): 25%

O=P(O)(O)CN(CCCCCCN(CP(=O)(O)O)CP(=O)(O)O)CCCCCCN(CP(=O)(O)O)CP(=O)(O)O [Example 6]
VFA Red. at 4 h (%) [1]: 12%

O=P1([O-])OP(=O)([O-])OP(=O)([O-])OP(=O)([O-])OP(=O)([O-])OP(=O)([O-])O1.[Na+].[Na+].[Na+].[Na+].[Na+].[Na+] [Example 3, Sodium hexametaphosphate]
VFA Red. at 4 h (%) [1]: 0%

O=P(O)(O)CN(CCN(CP(=O)(O)O)CP(=O)(O)O)CCN(CP(=O)(O)O)CP(=O)(O)O [Example 25, Diethylenetriamine penta(methylene phosphonic acid)]
VFA Red. at 0.5 h (%): 8.3% | VFA Red. at 2 h (%): 12.5% | VFA Red. at 2.5 h (%): 9.1%
